Format in all cases: cell-based
For assay [1], the target named is T1, NPFF2 receptor (human NPFFR2 in CHO-RD-HGA16 cells) (Homo sapiens, UniProt Q9Y5X5).
T1 construct: expressed in transfected cells
The assay can be described thus: Calcium mobilization functional Ke assay, NPFF2.

For assay [2], the target named is T2, NPFF1 receptor (human NPFFR1 in CHO-RD-HGA16 cells) (Homo sapiens, UniProt Q9GZQ6).
T2 construct: expressed in transfected cells
The assay can be described thus: Calcium mobilization functional Ke assay, NPFF1.

For assay [3], the target named is NPFF2 receptor (human NPFFR2-CHO cells) (Homo sapiens, UniProt Q9Y5X5). The assay can be described thus: Lance cAMP functional Ke assay, NPFF2. The following applies: Table 5. Here is the method:
(§1) Kinetic solubility and bidirectional MDCK-MDR1 permeability assays of the compounds were performed by Paraza Pharma Inc. (Montreal, Canada) according to their standard protocols.
(§2) cAMP assay. Stable human NPFFR1-CHO (ES-491-C) and NPFFR2-CHO (ES-490-C) cell lines were purchased from PerkinElmer and used with the Lance@ Ultra kit (TRF0262) to detect cAMP accumulation in low volume 96-well plates. Stimulation buffer containing 1× HBSS, 5 mM HEPES, 0.1% BSA stabilizer, and 0.5 mM IBMX was prepared and titrated to 7.4 at room temperature.
(§3) A single concentration of each test compound was prepared at 4× the desired final concentration in 2% DMSO/stimulation buffer and 5 μL was added to the assay plate.
(§4) Cells were lifted with versene and spun at 270 g for 10 minutes. The cell pellet was resuspended in stimulation buffer and 4,000 cells (10 μL) were added to each well. After incubating for 30 min at RT, Eu-cAMP tracer and uLIGHT-anti-cAMP working solutions were added per the manufacturer's instructions. After incubation at RT for 1 hour, the TR-FRET signal (ex 337 nm) was read on a CLARIOstar multimode plate reader (BMG Biotech, Cary NC).
(§5) Fluorescence values at 665 nm were plotted against the log of compound concentration using a nonlinear regression analysis to generate EC50 values (GraphPad Prism, GraphPad Software, Inc., San Diego CA). Ke values were calculated using the same equation as described in the calcium mobilization methods.

Assay [4] deals with NPFF1 receptor (human NPFFR1-CHO cells) (Homo sapiens, UniProt Q9GZQ6). The assay can be described thus: Lance cAMP functional Ke assay, NPFF1. Conditions: Table 5. Here is the method:
as §1, §2, §3, §4, §5

[5] abbreviates: Table 4, mean ± SEM, read-out: NPFF2 Ke.
The mark [6] stands for this setting: Table 4, mean ± SEM, read-out: NPFF1 Ke.
[7] abbreviates: Table 3, mean ± SEM, read-out: NPFF2 Ke.
Where [8] appears, read: Table 3, mean ± SEM, read-out: NPFF1 Ke.
Where [9] appears, read: Table 1, footnote c: pre-incubation of antagonist and test compound 45 min or 1 hr, read-out: NPFF2 Ke.
Setting [10] is: Table 1, mean ± SEM, apparent dissociation constant vs NPFF, read-out: NPFF1 Ke.

Where two headings read alike, the source gives them in different places.

Data on 21 compounds can be found in patent US12390446B2 (RESEARCH TRIANGLE INSTITUTE, priority 2017, dated 2025).

T1 sequence (Q9Y5X5 whole entry): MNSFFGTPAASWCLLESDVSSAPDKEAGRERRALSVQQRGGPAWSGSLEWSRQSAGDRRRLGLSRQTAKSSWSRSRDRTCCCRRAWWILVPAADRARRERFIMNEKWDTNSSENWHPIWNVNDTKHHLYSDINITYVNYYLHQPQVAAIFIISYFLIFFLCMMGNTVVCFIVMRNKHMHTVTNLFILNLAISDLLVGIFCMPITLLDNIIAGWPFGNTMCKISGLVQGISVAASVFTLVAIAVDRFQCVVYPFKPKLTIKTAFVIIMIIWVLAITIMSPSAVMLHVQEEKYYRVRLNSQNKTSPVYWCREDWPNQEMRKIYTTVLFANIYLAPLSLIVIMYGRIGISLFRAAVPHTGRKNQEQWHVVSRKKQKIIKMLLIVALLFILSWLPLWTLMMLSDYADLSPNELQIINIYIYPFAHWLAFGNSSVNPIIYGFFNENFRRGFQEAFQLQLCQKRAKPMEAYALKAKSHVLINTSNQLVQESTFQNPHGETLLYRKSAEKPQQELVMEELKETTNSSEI
T2 sequence (Q9GZQ6 whole entry): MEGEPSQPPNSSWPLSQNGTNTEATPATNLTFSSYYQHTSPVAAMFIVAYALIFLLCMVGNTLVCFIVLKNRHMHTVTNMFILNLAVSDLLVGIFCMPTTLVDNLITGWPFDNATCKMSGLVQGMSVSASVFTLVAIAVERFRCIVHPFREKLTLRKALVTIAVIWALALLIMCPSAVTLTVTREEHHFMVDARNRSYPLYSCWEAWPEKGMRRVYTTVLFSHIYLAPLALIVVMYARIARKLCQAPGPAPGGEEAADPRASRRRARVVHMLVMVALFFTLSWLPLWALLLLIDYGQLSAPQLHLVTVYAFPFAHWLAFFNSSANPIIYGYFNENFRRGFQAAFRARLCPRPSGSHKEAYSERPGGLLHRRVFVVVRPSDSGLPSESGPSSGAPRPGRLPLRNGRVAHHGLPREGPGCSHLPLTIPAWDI
Chain of NPFF2 receptor (human NPFFR2-CHO cells) (Q9Y5X5 whole entry): as the sequence (Q9Y5X5 whole entry) above
Chain of NPFF1 receptor (human NPFFR1-CHO cells) (Q9GZQ6 whole entry): as the sequence (Q9GZQ6 whole entry) above

As to `CNC(=O)[C@@H]1C[C@H](NCc2ccc(OC)cc2)CN1Cc1ccccc1Cl` [Compound 10, (2S,4S)-1-[(2-Chlorophenyl)methyl]-4-{[(4-methoxyphenyl)methyl]amino}-N-methylpyrrolidine-2-carboxamide], the “NPFF2 antagonist activity” value in assay [1] (at 10 μM) is “inactive”. The “NPFF1 antagonist activity” value in assay [2] (at 10 μM) is “inactive”.

Consider `COc1ccc(CN[C@H]2C[C@@H](C(=O)NCCc3ccccc3)N(CC3CCCCC3)C2)cc1` [Compound 75, (2S,4S)-1-(Cyclohexylmethyl)-4-{[(4-methoxyphenyl)methyl]amino}-N-(2-phenylethyl) pyrrolidine-2-carboxamide], for which the “NPFF2 Ke” value in assay [1] (Table 4, mean ± SEM) is 3,640 ± 830 nM. The “NPFF1 Ke” value in assay [2] (Table 4, mean ± SEM) is 650 ± 70 nM.

For `COc1ccc(CN[C@H]2C[C@@H](C(=O)NCCc3ccccc3)N(Cc3cccc(OC)c3)C2)cc1` [Compound 80, (2S,4S)-1-[(3-Methoxyphenyl)methyl]-4-{[(4-methoxyphenyl)methyl]amino}-N-(2-phenylethyl)pyrrolidine-2-carboxamide], the Kb in assay [1] (setting [5]) was over 10 µM; in assay [2] (setting [6]), 2.46 µM.

Consider `CCCCCCN1C[C@@H](NCc2ccc(OC)cc2)C[C@H]1C(=O)NCCc1ccccc1` [Compound 74, (2S,4S)-1-Hexyl-4-{[(4-methoxyphenyl)methyl]amino}-N-(2-phenylethyl)pyrrolidine-2-carboxamide], for which the Kb turned out to be 7.1 µM in assay [1] (setting [5]) and 1.45 µM in assay [2] (setting [6]).

Take `COc1ccc(CN[C@H]2C[C@@H](C(=O)NCCc3ccc([N+](=O)[O-])cc3)N(Cc3ccccc3Cl)C2)cc1OC` [Compound 60, (2S,4S)-1-[(2-Chlorophenyl)methyl]-4-{[(3,4-dimethoxyphenyl)methyl]amino}-N-[2-(4-nitrophenyl)ethyl]pyrrolidine-2-carboxamide]: the results for the Kb in assay [1] (setting [7]) and in assay [2] (setting [8]) were 3.15 µM and 1.92 µM, respectively.

Regarding `O=C(NCCc1ccc([N+](=O)[O-])cc1)[C@@H]1C[C@H](NCc2ccc(F)cc2)CN1Cc1ccccc1Cl` [Compound 64, (2S,4S)-1-[(2-Chlorophenyl)methyl]-4-{[(4-fluorophenyl)methyl]amino}-N-[2-(4-nitrophenyl)ethyl]pyrrolidine-2-carboxamide], the Kb was over 10 µM in assay [1] (setting [7]); over 10 µM in assay [1] (Table 5, read-out: Calcium mobilization assay Ke NPFF2); 0.96 µM in assay [3]; 1.44 µM in assay [4]; 0.96 ± 0.69 µM in assay [2] (setting [8]). In assay [2] (from calcium mobilization Ke values), the “preference / selectivity for NPFF1 over NPFF2” value was “more than 10 fold”.

Consider `COc1ccc(CN[C@H]2C[C@@H](C(=O)N3CCN(c4ccccc4)CC3)N(Cc3ccccc3Cl)C2)cc1` [Compound 42, (3S,5S)-1-[(2-Chlorophenyl)methyl]-N-[(4-methoxyphenyl)methyl]-5-(4-phenylpiperazine-1-carbonyl)pyrrolidin-3-amine], for which the Kb in assay [1] (setting [9]) turned out to be 2.08 µM; in assay [2] (Table 1, footnote c: pre-incubation of antagonist and test compound 45 min or 1 hr, read-out: NPFF1 Ke), 1.33 µM. For the same compound, the “NPFF1 Ke” value in assay [2] (calcium mobilization assay) was 1,330 nM. For the same compound, the “type of antagonism in curve-shift assays” value in assay [2] (standard incubation, competitive profile with longer incubations) is “insurmountable antagonism”.

`COc1ccc(CN[C@H]2C[C@@H](C(=O)NCCc3ccccc3)N(Cc3ccc(O)cc3)C2)cc1` [Compound 84, (2S,4S)-1-[(4-Hydroxyphenyl)methyl]-4-{[(4-methoxyphenyl)methyl]amino}-N-(2-phenylethyl)pyrrolidine-2-carboxamide]: the Kb in assay [1] (setting [5]) and in assay [2] (setting [6]) was over 10 µM in each case.

For the compound `O=C(NCCc1ccc([N+](=O)[O-])cc1)[C@@H]1C[C@H](NCc2ccc(Cl)cc2)CN1Cc1ccccc1Cl` [Compound 63, (2S,4S)-1-[(2-Chlorophenyl)methyl]-4-{[(4-chlorophenyl)methyl]amino}-N-[2-(4-nitrophenyl)ethyl]pyrrolidine-2-carboxamide], the Kb in assay [1] (setting [7]) was determined as 1.86 µM; in assay [3], 1.76 µM; in assay [4] it was 1.55 µM; in assay [2] (setting [8]), 0.68 ± 0.18 µM; in assay [2] (Table 5, read-out: Calcium mobilization assay Ke NPFF1) it was 0.51 ± 0.18 µM.

Turning to `CCCCCCN[C@H]1C[C@@H](C(=O)NCCc2ccc([N+](=O)[O-])cc2)N(Cc2ccccc2Cl)C1` [Compound 55, (2S,4S)-1-[(2-Chlorophenyl)methyl]-4-(hexylamino)-N-[2-(4-nitrophenyl)ethyl]pyrrolidine-2-carboxamide], the Kb in assay [1] (setting [7]) amounted to 4.47 µM; in assay [2] (setting [8]), 2.32 µM.

Take `CCNC(=O)[C@@H]1C[C@H](NCc2ccc(SC)cc2)CN1Cc1ccccc1Cl` [Compound 43, (2S,4S)-1-[(2-Chlorophenyl)methyl]-N-ethyl-4-{[(4-(methylthio)phenyl)methyl]amino}pyrrolidine-2-carboxamide]: the Kb in assay [1] (Table 2, 4-(4-methylthio)benzylamino series, mean ± SEM, read-out: NPFF2 Ke) worked out at 5.6 µM; in assay [2] (Table 2, 4-(4-methylthio)benzylamino series, mean ± SEM, read-out: NPFF1 Ke) it was 1.08 µM.

Consider `COc1ccc(CN[C@H]2C[C@@H](C(=O)NCCc3ccccc3)N(Cc3ccccc3OC)C2)cc1` [Compound 79, (2S,4S)-1-[(2-Methoxyphenyl)methyl]-4-{[(4-methoxyphenyl)methyl]amino}-N-(2-phenylethyl)pyrrolidine-2-carboxamide], for which the Kb in assay [1] (setting [5]) amounted to 5.11 µM; in assay [2] (setting [6]), 1.23 µM.

On to `COc1ccc(CN[C@H]2C[C@@H](C(=O)NCCc3ccccc3)N(Cc3ccc(C)cc3)C2)cc1` [Compound 83, (2S,4S)-4-{[(4-Methoxyphenyl)methyl]amino}-1-[(4-methylphenyl)methyl]-N-(2-phenylethyl)pyrrolidine-2-carboxamide], for which the Kb is over 10 µM in assay [1] (read-out: NPFF2 Ke) and 1.32 µM in assay [2] (read-out: NPFF1 Ke).

Take `COc1ccc(CN[C@H]2C[C@@H](C(=O)NCCc3ccccc3)N(Cc3ccccc3)C2)cc1` [Compound 76, (2S,4S)-1-Benzyl-4-{[(4-methoxyphenyl)methyl]amino}-N-(2-phenylethyl)pyrrolidine-2-carboxamide]: the Kb was over 10 µM in assay [1] (setting [5]) and 1.27 µM in assay [2] (setting [6]).

For `COc1ccc(CN[C@H]2C[C@@H](C(=O)NC(C)(C)C)N(Cc3ccccc3Cl)C2)cc1` [Compound 15, (2S,4S)—N-tert-Butyl-1-[(2-chlorophenyl)methyl]-4-{[(4-methoxyphenyl)methyl]amino}pyrrolidine-2-carboxamide], the Kb in assay [1] (setting [9]) amounted to 1.26 µM; in assay [2] (setting [10]), 1.88 µM.

Consider `COc1ccc(CN[C@H]2C[C@@H](C(=O)NCCc3ccc(F)cc3)N(Cc3ccccc3Cl)C2)cc1` [Compound 35, (2S,4S)-1-[(2-Chlorophenyl)methyl]-N-[2-(4-fluorophenyl)ethyl]-4-{[(4-methoxyphenyl)methyl]amino}pyrrolidine-2-carboxamide], for which the Kb was found to be 9.88 µM in assay [1] (Table 1, mean ± SEM, apparent dissociation constant vs NPFF, read-out: NPFF2 Ke) and 1.13 µM in assay [2] (setting [10]). Besides, the “NPFF1 Ke” value in assay [2] (calcium mobilization assay) was 1,130 nM.

With `CCCCCCNC(=O)[C@@H]1C[C@H](NCc2ccc(OC)cc2)CN1Cc1ccccc1Cl` [Compound 18, (2S,4S)-1-[(2-Chlorophenyl)methyl]-4-{[(4-methoxyphenyl)methyl]amino}-N-hexylpyrrolidine-2-carboxamide], the Kb in assay [1] (setting [9]) turned out to be 1.49 µM; in assay [2] (setting [10]), 0.82 ± 0.08 µM.

For `CCNC(=O)[C@@H]1C[C@H](NCc2ccc(SC)cc2)CN1Cc1ccccc1Cl` [Compound 1], in assay [1] (calcium mobilization assay), the “NPFF2 Ke” value is listed as 7,250 nM. Also, the “NPFF1 Ke” value in assay [2] (calcium mobilization assay) is 1,620 nM.

As to `COc1ccc(CN[C@H]2C[C@@H](C(=O)NCCC(C)C)N(Cc3ccccc3Cl)C2)cc1` [Compound 17, (2S,4S)-1-[(2-Chlorophenyl)methyl]-4-{[(4-methoxyphenyl)methyl]amino}-N-(3-methylbutyl)pyrrolidine-2-carboxamide], the Kb in assay [1] (setting [9]) was determined as 1.54 µM; in assay [2] (setting [10]), 1.32 µM.

On to `O=C(NCCc1ccc([N+](=O)[O-])cc1)[C@@H]1C[C@H](NCc2ccc(O)cc2)CN1Cc1ccccc1Cl` [Compound 61, (2S,4S)-1-[(2-Chlorophenyl)methyl]-4-{[(4-hydroxyphenyl)methyl]amino}-N-[2-(4-nitrophenyl)ethyl]pyrrolidine-2-carboxamide], for which the Kb in assay [1] (setting [7]) was 6.37 µM; in assay [2] (setting [8]), 4.79 µM.

As for `CCCCN[C@H]1C[C@@H](C(=O)NCCc2ccc([N+](=O)[O-])cc2)N(Cc2ccccc2Cl)C1` [Compound 53, (2S,4S)-4-(Butylamino)-1-[(2-chlorophenyl)methyl]-N-[2-(4-nitrophenyl)ethyl]pyrrolidine-2-carboxamide], the Kb was over 10 µM in assay [1] (setting [7]) and 6.12 µM in assay [2] (setting [8]).
